“Also recorded” adds a separate entry of the source.
Experiments:
[1] = target: T1, 40K-PEG-rFVIIa (Homo sapiens, UniProt P08709); assay: Stability of liquid 40K-PEG-rFVIIa formulations: heavy chain fragmentation (Assay 5); assay type: physicochemical; conditions: 2 months at 5° C.; 28 mM benzaldehyde or 180 mM 5-formyl-4-methylimidazole
T1 construct: has been cleaved at the peptide bond preceding position 153
T1 sequence (P08709 213-466 limits assumed): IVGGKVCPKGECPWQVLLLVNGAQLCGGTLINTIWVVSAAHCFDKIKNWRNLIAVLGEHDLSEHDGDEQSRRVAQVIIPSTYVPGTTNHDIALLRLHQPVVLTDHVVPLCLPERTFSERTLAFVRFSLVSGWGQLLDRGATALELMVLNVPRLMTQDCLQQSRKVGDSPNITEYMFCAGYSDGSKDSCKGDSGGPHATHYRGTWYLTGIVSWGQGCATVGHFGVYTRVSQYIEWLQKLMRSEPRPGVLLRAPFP
T1 sequence (P08709 61-212 limits assumed): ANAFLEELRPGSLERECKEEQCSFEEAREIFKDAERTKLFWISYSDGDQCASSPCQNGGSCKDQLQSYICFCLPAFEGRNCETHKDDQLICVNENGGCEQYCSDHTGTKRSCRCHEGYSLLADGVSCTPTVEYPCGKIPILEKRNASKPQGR
Description: For the purpose of determining the content of heavy chain fragmentation products of 40K-PEG-rFVIIa, a reverse phase HPLC was run on a ACE 3 μm C4, 300 Å, 4.6×100 mm column (Advanced Chromatography Technologies, part. no. ACE-213-1046). Column temperature: 60° C. A-buffer: 0.05% v/v trifluoracetic acid. B-buffer: 0.06% v/v trifluoracetic acid, 80% v/v acetonitrile. Denaturation buffer: 6M Guanidine hydrochloride, 50 mM Tris, 5 mM calcium chloride, pH 7,5. Samples are prepared from 50 μl analysis sample+50 μl denaturation buffer+5 μl DTT+1 μl acetic acid and incubated at 60° C. for 15 min.
The column was eluted with a linear gradient from 35 to 80% B in 30 minutes. Flow rate: 0.7 mL/min. Detection: 214 nm. Load: 25 μg FVIIa. The initial content of heavy chain degradation products is subtracted from the measured content of heavy chain degradation product, i.e. the initial content of heavy chain degradation products is set to 0%. The content of heavy chain degradation products at the time x is then calculated as: […]
wherein HCDP(x) is the measured content of heavy chain degradation products at the time x, HCDP(0) is the measured initial content of heavy chain degradation products, and FVII(x) is the content of the intact Factor VII polypeptide at the time x.
A stability experiment with liquid formulations containing 40K-PEG-rFVIIa was performed. […]

[2] = target: T1, 40K-PEG-rFVIIa; assay: Stability of liquid 40K-PEG-rFVIIa formulations: clot activity (one-stage coagulation assay, Assay 3); assay type: biochemical; conditions: 2 months at 5° C.; 28 mM benzaldehyde or 180 mM 5-formyl-4-methylimidazole
Description: The clot assay is used to assess the ability of Factor VIIa polypeptides to make blood clot. For this purpose, the sample to be tested is diluted in 50 mM PIPES-buffer (pH 7.5), 0.1% BSA and 40 μl is incubated with 40 μl of Factor VII deficient plasma and 80 μl of human recombinant tissue factor containing 10 mM Ca2+ and synthetic phospholipids. Coagulation times (clotting times) are measured and compared to a standard curve using a reference standard in a parallel line assay.
A stability experiment with liquid formulations containing 40K-PEG-rFVIIa was performed. The formulations had the following compositions: […]
The PEG moiety is excluded in the specification of 40K-PEG-rFVIIa concentration. pH was 6.5 in all samples. At 0, ½, 1 and 2 months, 70 μl aliquots were taken from the stability sample, diluted to 1 mg/ml 40K-PEG-rFVIIa and assayed for clot activity (Δactivity), FVIIa polypeptide fragmentation (Δfragment), dimer/2-PEG, and high molecular weight protein.

[3] = target: T2, FVIIa (Homo sapiens, UniProt P08709); assay: Thermo-fluorescence (thermal shift) measurement of FVIIa denaturation temperature in the presence of aldehydes; assay type: physicochemical; conditions: 25 mM imidazole, pH 6.5, 20 mM CaCl2, 60 mg/ml sucrose; various aldehyde concentrations; FIG. 2
T2 construct: has been cleaved at the peptide bond preceding position 153
T2 sequence (P08709 213-466 limits assumed): T1 sequence (P08709 213-466 limits assumed)
T2 sequence (P08709 61-212 limits assumed): T1 sequence (P08709 61-212 limits assumed)
Description: The effect of aldehydes on Factor VIIa amidolytic activity is shown in an in vitro hydrolysis assay (20 mM imidazole, pH 6.5, 20 mM CaCl2), the results of which are illustrated in FIG. 1. A clear inhibition of amidolytic activity is observed. However, the apparent inhibition could be due to FVIIa denaturation. In order to address this issue, the denaturation temperature of FVIIa was measured in the presence of aldehydes. The measurement was performed by thermo-fluorescence, essentially as the thermal shift assay described by Lo et al., Analytical Biochemistry 332, 153-159 (2004). The denaturation temperature was determined as the point of maximum slope of the fluorescence intensity curve. The denaturation temperature is shown in FIG. 2 at various concentrations of aldehydes (25 mM imidazole, pH 6.5, 20 mM CaCl2, 60 mg/ml sucrose). […] Therefore, the inhibitory activity of these three compounds may be caused by denaturation.

[4] = target: T3, rFVIIa (Homo sapiens, UniProt P08709); assay: Stability experiment: heavy chain fragmentation of rFVIIa after 4 weeks in benzaldehyde solutions; assay type: physicochemical; conditions: 4 weeks at 5° C.; 12.5 mg/ml rFVIIa, pH 6.5; 0, 10, 20, 40 and 80 mM benzaldehyde; FIG. 5
T3 construct: has been cleaved at the peptide bond preceding position 153
T3 sequence (P08709 213-466 limits assumed): T1 sequence (P08709 213-466 limits assumed)
T3 sequence (P08709 61-212 limits assumed): T1 sequence (P08709 61-212 limits assumed)
Description: In the below working examples the content of heavy chain fragmentation products of Factor VIIa is determined by RP-HPLC as described in the following:
Reverse phase HPLC was run on a proprietary 4.5×250 mm butyl-bonded silica column with a particle size of 5 μm and pore size 300 Å. Column temperature: 70° C. A-buffer: 0.1% v/v trifluoracetic acid. B-buffer: 0.09% v/v trifluoracetic acid, 80% v/v acetonitrile. The column was eluted with a linear gradient from X to (X+13) % B in 30 minutes. X was adjusted so that FVIIa elutes with a retention time of approximately 26 minutes. Flow rate: 1.0 mL/min. Detection: 214 nm. Load: 25 μg FVIIa.
A stability experiment with liquid formulations containing FVIIa was performed. Conditions in all samples were 10 mM His, pH 6.5, 20 mM CaCl2, 6% sucrose, 0.5 mg/ml methionine, 12.5 mg/ml rFVIIa. 50 μl solutions with 0, 10, 20, 40 and 80 mM benzaldehyde in 500 μl cryotubes were prepared, incubated at 5° C. for 4 weeks and then frozen to −80° C. In addition, a reference sample without benzaldehyde was prepared and immediately frozen to −80° C. For analysis, all samples were thawed, diluted to 1 ml volume in 10 mM histidine, pH 5.5, and analysed for heavy chain fragmentation.

| Compound | Fragmentation compared to the reference formulation [1] | Loss of activity / FVIIa polypeptide stability compared to the reference formulation [2] | Effect on Factor VIIa denaturation temperature (melting point) [3] | Fragmentation as a percentage of the total Factor VIIa content (% fragmented) [4] |
| --- | --- | --- | --- | --- |
| Cc1nc[nH]c1C=O [5-formyl-4-methylimidazol, 5-formyl-4-methylimidazole] | very large reduction in fragmentation | very large improvement in FVIIa polypeptide stability |  |  |
| O=Cc1ccccc1 [benzaldehyde] | small reduction in fragmentation | small reduction in fragmentation and loss of activity | drops significantly at high aldehyde concentration; also recorded: affect the denaturation temperature at high concentrations | decreases as the concentration of benzaldehyde is increased; also recorded: much lower in the presence of benzaldehyde, particularly in concentrations above 10 mM |

Reference: patent US20100303786A1, “Stabilisation of Liquid-Formulated Factor VII(A) Polypeptides by Aldehyde-Containing Compounds” (Novo Nordisk Health Care AG, priority 2007, published 2010)
